Data on 14 compounds can be found in patent publication US7868147B2, “Fluorescent probe” (Sekisui Medical Co., Ltd., priority 2003, dated 2011).

Each structure is given as a SMILES string.

For series [1] the following is noted: literature (Lindqvist et al., 1966); cited from earlier work.
Series [2] in a line: Maximum excitation and fluorescence wavelength of fluorescein derivatives. The class given is physicochemical. The settings on record: measured in 0.1 N aqueous NaOH. The source says:
(§1) Correlation between fluorescence quantum yield and the oxidation potential of the benzene ring moiety of each compound prepared above was studied. As clearly shown by the results in the figure, the fluorescence quantum yield of each compound changed depending on the oxidation potential of the benzene ring moiety. In an alkaline solution at pH 13, the OH group of the xanthene ring dissociates its proton to become an anion, and under this condition, the compound whose oxidation potential is 1.20V or lower became almost non-fluorescent, whereas the compound whose oxidation potential is 1.65V or higher emitted fluorescence with a quantum yield of almost 1. Between the two values, it was observed that the quantum yield decreases according to the decrease in the oxidation potential. An oxidation potential of the benzene ring under the acidic condition at pH 3.4, which has an influence on fluorescence, is different from that under a basic condition, i.e., the compound whose oxidation potential is 1.60V or lower is almost no fluorescent, whereas the compound whose oxidation potential is 1.90V or higher emitted fluorescence with a quantum yield of almost 0.3. It is known that the OH group of the xanthene ring is protonated at pH 3.4, and under this condition, the quantum yield of Fluorescein is about 0.3.

Series [3] can be described thus: Oxidation potential of the benzene ring moiety (PET donor). The class given is physicochemical. The settings on record: 0.1 M acetonitrile containing tetrabutylammonium perchlorate (TBAP).
Text: For the selection of a combination of R^1 and R^2, information of the electron density of the benzene ring to which they bind may be utilized. Information of the electron density of the benzene ring is easily available, for example, by calculating oxidation potential of said benzene ring according to a quantum chemical means. A reduction of the oxidation potential of said benzene ring means an increase of the electron density of said benzene ring, which corresponds to an elevation of HOMO orbital energy. For example, HOMO energy of said benzene ring moiety can be determined by a density functional theory (B3LYP/6-31G(d)). All the oxidation potentials described in the specification are indicated as values obtained with a saturated calomel electrode as a reference electrode, of which base line is different by about 0.24 V from that used for values obtained with a silver/silver nitrate electrode (Ag/Ag^+) as a reference electrode.
as §1

The nature of series [4]: Fluorescence quantum yield. The settings on record: for Φfl (pH 3.4): pH 3.4, xanthene OH protonated; for Φfl (pH 13): pH 13, xanthene OH deprotonated. It counts as physicochemical.
Text: as §1

Series [5] can be described thus: Fluorescence quantum yield. The class given is physicochemical. The settings on record: 100 mM sodium phosphate buffer.

With `O=c1ccc2c(-c3ccccc3)c3ccc(O)cc3oc-2c1` [6-Hydroxy-9-phenylfluorone], the “fluorescence quantum yield relative to fluorescein” value in series [1] is “lower fluorescence quantum yield”.
With `COc1ccc(OC)c(-c2c3ccc(=O)cc-3oc3cc(O)ccc23)c1` [Compound 8], in series [2], the Maximum excitation wavelength is listed as 494 nm and the Maximum fluorescence wavelength was found to be 512 nm. The Oxidation potential in series [3] was 1.26 V vs SCE. Further, in series [4], the “Φfl (pH 3.4)” value turned out to be 0.000 and the “Φfl (pH 13)” value came out at 0.010.
Take `COC(=O)CCCCOc1ccc(-c2c3ccc(=O)cc-3oc3cc(O)ccc23)c(C)c1` [Compound 17]: the Φfl in series [5] (pH 9.0) stood at 0.82.
In series [2], `Cc1ccccc1-c1c2ccc(=O)cc-2oc2cc(O)ccc12` [Compound 1] had a Maximum excitation wavelength of 491 nm and a Maximum fluorescence wavelength of 510 nm. For the same compound, in series [3], the Oxidation potential was determined as 2.19 V vs SCE. Further, in series [4], the “Φfl (pH 3.4)” value is on record as 0.319 and the “Φfl (pH 13)” value stood at 0.847.
On to `COc1ccc(-c2c3ccc(=O)cc-3oc3cc(OP(=O)(O)O)ccc23)c(C)c1` [Compound 11], for which the Φfl in series [5] (pH 7.4) was determined as 0.029.
For the compound `COC(=O)COc1ccc(-c2c3ccc(=O)cc-3oc3cc(O)ccc23)c(C)c1` [Compound 15], in series [5] (pH 9.0), the Φfl amounted to 0.87.
Take `COc1ccc(C)cc1-c1c2ccc(=O)cc-2oc2cc(O)ccc12` [Compound 6]: in series [2], the Maximum excitation wavelength amounted to 494 nm and the Maximum fluorescence wavelength turned out to be 514 nm. Also, in series [3], the Oxidation potential turned out to be 1.57 V vs SCE. Further, in series [4], the “Φfl (pH 3.4)” value worked out at 0.004 and the “Φfl (pH 13)” value worked out at 0.500.
The corresponding values for `COc1ccc(-c2c3ccc(=O)cc-3oc3cc(O)ccc23)c(C)c1` [Compound 5] are 492 nm, 509 nm, 1.66 V vs SCE, 0.010 and 0.840.
The corresponding values for `Cc1ccc(-c2c3ccc(=O)cc-3oc3cc(O)ccc23)c(C)c1` [Compound 2] are 491 nm, 510 nm, 2.08 V vs SCE, 0.307 and 0.865.
On the same counts, the results for `Cc1ccc(C)c(-c2c3ccc(=O)cc-3oc3cc(O)ccc23)c1` [Compound 3] are 491 nm, 510 nm, 1.98 V vs SCE, 0.319 and 0.887.
In the case of `COc1ccc(-c2c3ccc(=O)cc-3oc3cc(O)ccc23)c(OC)c1` [Compound 7], in series [2], the Maximum excitation wavelength was 494 nm and the Maximum fluorescence wavelength was found to be 513 nm. Moreover, the Oxidation potential in series [3] is on record as 1.44 V vs SCE. Further, in series [4], the “Φfl (pH 3.4)” value is given as 0.001 and the “Φfl (pH 13)” value worked out at 0.200.
The corresponding values for `COc1ccccc1-c1c2ccc(=O)cc-2oc2cc(O)ccc12` [Compound 4] are 494 nm, 515 nm, 1.75 V vs SCE, 0.076 and 0.860.
For the compound `COC(=O)COc1ccc(-c2c3ccc(=O)cc-3oc3cc(O[C@@H]4OC(COC(C)=O)[C@H](OC(C)=O)C(OC(C)=O)C4OC(C)=O)ccc23)c(C)c1` (stereo partly shown) [Compound 16], in series [5] (pH 7.4), the Φfl is recorded as 0.069.
Same read-out and setting: with `COC(=O)CCCCOc1ccc(-c2c3ccc(=O)cc-3oc3cc(O[C@@H]4OC(COC(C)=O)[C@H](OC(C)=O)C(OC(C)=O)C4OC(C)=O)ccc23)c(C)c1` (stereo partly shown) [Compound 18] the figure was 0.005.
